For 9 molecules, TGI results are on record in PubChem BioAssay (NCI).

Common to all, as to test: growth of human tumour cells (NCI), 48 h
Assay [1] concerns OVCAR-4 ovarian.
Assay [2] has as its system MDA-N.
For assay [3], the system named is MDA-MB-435.
The test system of assay [4] is SK-OV-3 ovarian.
Assay [5] has as its system HOP-92 NSCLC.
In assay [6] the test system is SK-MEL-5 melanoma.
Assay [7] deals with NCI-H522 lung.
The subject of assay [8] is U251 CNS.
The test system of assay [9] is SF-268 CNS.
Assay [10] relates to HCC-2998 colon.
For assay [11], the system named is ACHN renal.
In assay [12] the test system is 786-0 renal.
Assay [13] deals with A498 renal.
The test system of assay [14] is SN12C renal.
Assay [15] relates to HOP-62 NSCLC.
Assay [16] deals with OVCAR-3 ovarian.
Assay [17] relates to CCRF-CEM leukemia.

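Exposure lasted 48 hours, with cells grown in 96-well plates and compounds tested at five concentrations. TGI is the concentration that stops growth completely.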

In the case of `COC(=O)c1ccc(NCC2=CC(=O)C=CC2=O)cc1`, the TGI is 26.5 µM in [1]; 24.2 µM in [2]; 24.3 µM in [3]; 30.3 µM in assay [4]; 10.5 µM in [5]; 32.5 µM in assay [6]. The TGI in [7] came to 3.11 µM; in assay [8] it was 28.7 µM; in [9], 28.8 µM; in assay [10] it was 38.8 µM; in [11] it was 27 µM; in assay [12], 7.86 µM. This molecule also returned a TGI in [13] of 27.6 µM.

As for `CC[C@H]1C=CCC[C@@]2(C[C@@H]3CC[C@H]4[C@H](C(=O)OCCCCCCCCCCCCCCCC(=O)N(CCCN)C[C@@H](O)CCN)[C@]5(CCC[C@@H](C)O5)NC(=[N+]34)N2)O1`, the TGI in assay [1] is 2.44 µM; in assay [14], 2.19 µM; in [15], 2.69 µM; in [2] it was 1.51 µM; in assay [16], 3.02 µM; in assay [3], 1.2 µM. Moreover, the TGI in assay [4] was found to be 3.28 µM; in assay [5], 1.45 µM; in assay [6], 1.31 µM; in assay [7], 2.72 µM; in [8], 1.44 µM; in assay [9], 3.46 µM. In addition, the TGI in assay [10] was 1.82 µM; in assay [11], 1.84 µM; in [12], 1.86 µM; in [13], 3.09 µM.

Take `CCOC(=O)c1cc2cc(C)cc(C(=O)c3ccc([N+](=O)[O-])cc3)c2[nH]1`: the TGI in assay [1], in assay [14], in assay [15], in assay [2], in assay [16] and in [3] was > 100 µM throughout. In addition, the TGI in assay [4], in assay [5], in assay [6], in [7], in assay [8] and in assay [9] was > 100 µM in each case. Moreover, the TGI in assay [10], in assay [11], in assay [12] and in assay [13] was > 100 µM each time.

As for `O=c1[nH]c2cc([N+](=O)[O-])ccc2nc1/C=C(\O)c1ccc(Cl)cc1`, the TGI is 41.1 µM in assay [1]; 78.7 µM in assay [2]; 38.6 µM in assay [16]; 33.8 µM in assay [17]; 45.2 µM in assay [3]; 43.4 µM in [4]. The TGI in assay [5] was determined as 36.6 µM; in assay [6], 51.2 µM; in assay [8], 19.8 µM; in assay [9], 53.8 µM; in assay [10], 72.3 µM; in assay [11], 31.4 µM. For the same molecule, the TGI in assay [12] came to 14.4 µM; in [13], 39.6 µM.

As for `CCOP(=O)(OCC)C(F)(F)Cc1cnc(C)c2c1COC(C)(C)O2`, the TGI in [1], in assay [14], in assay [15], in assay [2], in assay [16] and in assay [17] was > 10 µM each time. Further, the TGI in assay [3], in [4], in assay [5], in assay [6], in assay [8] and in assay [9] was > 10 µM throughout. The TGI in assay [10], in assay [11], in assay [12] and in [13] was > 10 µM each time.

On to `CC12C(=O)OC(=O)C1(C)C1C=CC2O1` (configuration not stated), for which the TGI in assay [14] was > 100 µM; in [2], > 100 µM; in [16], 99 µM; in assay [17] it was > 100 µM; in assay [3] it was > 100 µM; in assay [4] it was > 100 µM. In addition, the TGI in [6], in assay [7], in assay [8], in assay [9], in assay [10] and in assay [11] was > 100 µM each time. In addition, the TGI in [12] and in assay [13] was > 100 µM in each case.

Regarding `OC(CC(O)(C(F)(F)F)C(F)(F)F)C(O)c1ccco1` (configuration not stated), the TGI in assay [1], in assay [14], in assay [15], in assay [2], in assay [16] and in [17] was > 10 µM each time. Besides, the TGI in assay [3], in assay [4], in assay [6], in assay [7], in assay [8] and in assay [9] was > 10 µM in each case. Besides, the TGI in assay [10], in assay [11], in assay [12] and in assay [13] was > 10 µM throughout.

Take `CCN(CC)C(=S)SS(=O)(=O)c1ccc(NC(C)=O)cc1`: the TGI in [1] was 54.3 µM; in assay [14], 39.1 µM; in assay [15] it was 42 µM; in [2], > 78.8 µM; in assay [16] it was > 100 µM; in assay [3], 33.4 µM. For the same molecule, the TGI is > 100 µM in assay [4]; 51.3 µM in assay [5]; 20.9 µM in assay [6]; 0.84 µM in assay [7]; 44.6 µM in assay [8]; > 70.2 µM in assay [9]. The TGI in assay [10] was > 100 µM; in [11], > 88.8 µM; in assay [12], 36.5 µM; in assay [13] it was > 89.5 µM.

Take `COc1ccc(N=CN(C)C)c(C)c1`: the TGI in assay [1] is 73.6 µM; in [14] it was 64 µM; in assay [15], 45.4 µM; in assay [2], > 100 µM; in assay [16], 13.1 µM; in assay [17], 16.5 µM. The TGI amounted to 93.3 µM in [3]; 82.8 µM in assay [4]; 36.3 µM in [5]; 12.5 µM in assay [6]; 8.08 µM in assay [7]; 72.5 µM in [8]. Moreover, the TGI in assay [9] was > 100 µM; in assay [11], 66.3 µM; in assay [12], > 100 µM; in assay [13] it was 60.5 µM.
